Experimental data published in US6525094B1, “Method of treating hair loss using diphenylether derivatives” (The University of Texas Southwestern Medical Center, priority 1999, dated 2003).

Tested on: male Sprague Dawley rats
Test: Cardiotoxicity Assay (heart-to-body weight ratio)
Type: in vivo, rat
Conditions: 250 μg of test compound per kg subcutaneously once daily for 28 days, hearts weighed on day 30
Source text: The cardiotoxicity assay measures the potential of a test compound to adversely affect the cardiovascular system. As thyroid hormone (T3) damages the cardiovascular system, the heart enlarges. See, e.g., Gomberg-Maitland et al., “Thyroid hormone and Cardiovascular Disease”, American Heart Journal, Vol. 135(2), pp. 187-196 (1998); Klein and Ojamaa, “Thyroid Hormone and the Cardiovascular System”, Current Opinion in Endocrinology and Diabetes, Vol. 4, pp.341-346 (1997); and Klemperer et al., “Thyroid Hormone Therapy and Cardiovascular Disease”, Progress in Cardiovascular Diseases, Vol. 37 (4), pp. 329-336 (1996). This increases the weight of the heart relative to whole body weight. The cardiotoxicity assay herein below is used to test compounds for potentially adverse cardiac effects by measuring their effect on the heart-to-body weight ratio.
Two groups each of six male Sprague Dawley rats (Harlan Sprague Dawley, Inc., Indianapolis, Ind.) (each weighing from approximately 220 grams to 235 grams) are utilized. The first group is a vehicle control group and the second group is a test compound group. The length of the assay is 30 days, with treatment of vehicle or test compound in vehicle daily for 28 of those days as described below.
Prior to initiation of the assay, each rat is allowed to acclimate to standard environmental conditions for 5 days. […]

SMILES | cardiac-sparing (index C = RT/RV, heart/body weight ratio of test compound group divided by that of vehicle control group; C less than 1.3 = cardiac-sparing)
N[C@@H](Cc1cc(I)c(Oc2cc(I)c(O)c(I)c2)c(I)c1)C(=O)O [Example T4, thyroxine] | not cardiac-sparing
N[C@@H](Cc1cc(I)c(Oc2ccc(O)c(I)c2)c(I)c1)C(=O)O [Example T3, thyronine] | not cardiac-sparing
